From paper PMC11478334, “Quaternized Curcumin Derivative—Synthesis, Physicochemical Characteristics, and Photocytotoxicity, Including Antibacterial Activity after Irradiation with Blue Light” (Molecules, 2024)
Where two headings read alike, the source gives them in different places.

How the values were obtained:
[1] = Photodecomposition quantum yields (photostability under visible light); format: physicochemical; details: for 10^−5 Φp (photodecomposition quantum yield): visible light over 450 nm; for calculated photodecomposition quantum yields, level / ΦP (photodecomposition quantum yield): visible light λ ≥ 450 nm; for calculated photodecomposition quantum yields, level: solvent not stated
Description: The absorption spectra of the studied curcumin derivatives 2 and 3 were monitored during the irradiation and compared with curcumin and zinc(II) phthalocyanine (ZnPc) as references (Figure 8). Under visible light irradiation (λ ≥ 450 nm), curcumin derivatives 2 and 3 only slightly decomposed. The calculated quantum yields were at the level of […]. […] Considering the obtained results, the morpholinoethyl and BF2 moieties tend to stabilize the curcumin core and prevent its photodecomposition. Partial reduction in light absorption (expressed by ε values) has also been noted for other photosensitizers subjected to the quaternization when 2-(morpholin-4-yl)ethoxy substituents were transformed into 2-(N-methylmorpholinium)ethoxy ones.
The photostability measurements were conducted in DMSO and DMF at ambient temperature under aerobic conditions according to the previously described method. A 150 W xenon lamp (Optel, Opole, Poland) was utilized as a light source. In order to separate the visible light (>450 nm), the HCC-16 cutting filter was used. The spectral changes under the irradiation were recorded with an OceanOptics Flame spectrophotometer equipped with a DT-MINI-2-GS light source (OceanOptics, Dunedin, FL, USA). The photodegradation quantum yields were then calculated using the previously presented equation [39, 73, 74, 76].

[2] = Singlet oxygen generation quantum yields, indirect method with DPBF or TTF; format: physicochemical
Description: Singlet oxygen generation quantum yield assessment constitutes a crucial measurement for the prospective photosensitizers applied in photodynamic therapy. For the singlet oxygen generation study, the indirect method was chosen with two different singlet oxygen quenchers—1,3-diphenylisobenzofuran (DPBF) and tetrathiafulvalene (TTF). Due to the partial overlapping of the DPBF band with the studied compounds’ bands in absorption spectra, a singlet oxygen formation assessment was also performed with TTF as a chemical singlet oxygen scavenger. The values obtained for new curcuminoids 2 and 3 were referenced to curcumin and ZnPc.
Singlet oxygen quantum yield measurements for 2, 3, and curcumin were assessed in dimethyl sulfoxide (DMSO; Fisher, Longborough, UK) and N,N-dimethylformamide (DMF; Fisher) at ambient temperature according to the comparative method protocols described previously. The method involves using chemical quenchers of singlet oxygen, 1,3-diphenylisobenzofuran (DPBF; Merck, Steinheim, Germany), tetrathiafulvalene (TTF; Aldrich, Steinheim, Germany), and an unsubstituted zinc(II) phthalocyanine (ZnPc; Aldrich) as a reference compound. The mixtures of curcumins and DPBF or TTF were irradiated with light adjusted to the maximum absorbance wavelength through the M250 monochromator (Optel, Opole, Poland). The changes in spectra under the irradiation were recorded with an OceanOptics Flame spectrophotometer equipped with a DT-MINI-2-GS light source. The singlet oxygen quantum yields were calculated using the previously presented equation [39, 73, 74, 75].

[3] = system: PHDF—primary human dermal fibroblasts; assay: MTT cell viability assay; format: cell-based
Description: (§1) To determine the toxicity of the tested compounds against normal and tumor cells, a cell viability assay was performed using MTT dye. The following cell lines were used: PHDF—primary human dermal fibroblasts, MRC-5—lung fibroblasts, WM266-4—melanoma, and WM115—melanoma. Whenever possible, the IC50 value was calculated for each cell line. The IC50 results are reported in Table 9, while Figure 14 presents graphs illustrating the dependence of cell viability on the concentration of the tested compounds.
(§2) In order to analyze the cytotoxic effect of curcumin and compounds 2 and 3, different cell lines were used: PHDF—primary human dermal fibroblasts, MRC-5—lung fibroblasts, WM266-4—melanoma (low-melanotic), and WM115—melanoma (high-melanotic). All cell lines were seeded onto 96-well flat-bottom plates at a concentration of 15,000 cells/well. Curcumin (1) and compounds 2 and 3 were dissolved in the completed culture medium at the final concentrations of 5 µM, 10 µM, 20 µM, 30 µM, 40 µM, and 50 µM. The final volume of medium in each well was 200 µL. Cells which were not exposed to the tested compounds constituted a control group. After 24 h, each of the reagents was added to the cells. Control cells were not treated with synthesized reagents; they were incubated with a completed cell culture medium. The incubation of cells with 1, 2, or 3 lasted 24 and 48 h. Then, the medium was discarded, and the new medium containing MTT (3-(4,5-dimethylthiazol-2-yl)-2,5-diphenyltetrazolium bromide) (Affymetrix, Cleveland, OH, USA) at a final concentration of 0.5 mg/mL was added to the cell culture. Cells were incubated for 2.5 h in cell culture conditions. Next, the medium was removed, and 100 µL of DMSO (Thermo Scientific, Waltham, MA, USA) was added to dissolve the formed formazan crystals. The absorbance was read with a Multiskan plate reader at 570 nm and the background at 655 nm (Thermo Scientific, Waltham, MA, USA). The experiment was performed in triplicate.
(§3) PHDF cells were extracted from skin pieces collected following mastectomy procedures at the Greater Poland Cancer Centre in Poznań, Poland. Each time, informed patient agreement was acquired for the “The Cancer Genome Atlas (TCGA)” project to utilize biological material for scientific research purposes. […] The MRC-5, WM266-4, and WM115 cell lines were obtained from the American Type Culture Collection (ATCC). For culturing of the PHDF, WM266-4, and WM115 cell lines, the medium contained Dulbecco′s Modified Eagle′s Medium (DMEM) (Biowest, Nuaillé, France), 10% of fetal bovine serum (Biowest, Nuaillé, France), and 1% of penicillin/streptomycin agents (Merck Millipore, Darmstadt, Germany). Cells were incubated in a humidified incubator containing 5% CO2. The MRC-5 cell line was cultured similarly to the method described in our previous article. Briefly, cells were incubated at 37 °C in an atmosphere enriched with 5% CO2. The basic culture medium was Dulbecco’s Modified Eagle’s Medium (DMEM) (Biowest, Nuaillé, France) supplemented with 10% fetal bovine serum (FBS) (Biowest, Nuaillé, France) with the addition of 2 mM L-glutamine and 5% non-essential amino acid solution.

[4] = system: WM115—melanoma (high-melanotic); assay: MTT cell viability assay; format: cell-based
Description: as §1, §2, §3

[5] = system: WM266-4—melanoma (low-melanotic); assay: MTT cell viability assay; format: cell-based
Description: as §1, §2, §3

[6] = Homo sapiens, Fibroblast, 24 h incubation, read-out: IC50 24 h
[7] = Homo sapiens, Fibroblast, 48 h incubation, read-out: IC50 48 h
[8] = 24 h incubation, read-out: IC50 24 h
[9] = 48 h incubation, read-out: IC50 48 h (converted)

Row | Compound | 10^−5 Φp (photodecomposition quantum yield) ([1]; DMF) | 10^−5 Φp (photodecomposition quantum yield) ([1]; DMSO) | calculated photodecomposition quantum yields, level [1] | singlet oxygen quantum yield ([2]; DPBF quencher, DMF) | singlet oxygen quantum yield ([2]; DPBF quencher, DMSO) | singlet oxygen quantum yield ([2]; TTF quencher, DMF) | singlet oxygen quantum yield ([2]; TTF quencher, DMSO) | IC50 [3, 6] | IC50 [3, 7] | IC50 [4, 8] | IC50 [4, 9] | IC50 [5, 8] | IC50 [5, 9] | other results
1 | C[N+]1(CCOc2ccc(C=CC3=CC(C=Cc4ccc(OCC[N+]5(C)CCOCC5)cc4)=[O+][B-](F)(F)O3)cc2)CCOCC1 [Compound 3] | 20.10 10^−5 | 6.13 10^−5 | ~10^−4 | 0.026 | 0.046 | 0.084 | 0.057 | > 50 µM | > 50 µM | > 50 µM | > 50 µM | > 50 µM | > 50 µM | singlet oxygen generation ΦΔ, reaching up to ([2]; TTF used, solvent not stated): ≤ 0.1
2 | Curcumin [reference compound] | 9.99 10^−5 | 8.31 10^−5 |  |  |  | 0.098 | 0.116 |  |  | 39.5 ± 9.4 µM | 18.1 µM | 44.9 ± 10.7 µM | 20.6 µM | singlet oxygen generation ΦΔ, estimated ([2]; natural curcumin, solvent not stated): 0.04–0.1; IC50 [3, 8]: > 50 µM; IC50 ([3]; 48 h incubation, read-out: IC50 48 h): 24.6 µM; IC50 ([5]; 24 h incubation, listed as curcumin, read-out: IC50 24 h): 45 µM; IC50 ([5]; 48 h incubation, listed as curcumin, read-out: IC50 48 h (converted)): 21 µM
3 | F[B-]1(F)OC(/C=C/c2ccc(OCCN3CCOCC3)cc2)=CC(/C=C/c2ccc(OCCN3CCOCC3)cc2)=[O+]1 [Compound 2] | 2.90 10^−5 | 5.41 10^−5 | ~10^−4 | <0.01 | 0.024 | <0.01 | <0.01 | > 50 µM | 28.4 µM | > 50 µM | > 50 µM | > 50 µM | > 50 µM | ΦP (photodecomposition quantum yield) ([1]; DMF): 2.90 × 10^−5; ΦP (photodecomposition quantum yield) ([1]; DMSO): 5.41 × 10^−5
